Test results: US9127040B2, “Regulation of sodium channels by PLUNC proteins” (The University of North Carolina at Chapel Hill, priority 2011, dated 2015)
Ends that are not written are not given here.

What was measured:
γENaC = biological target: T1, γENaC (Homo sapiens, UniProt P51170); assay: Biotinylated peptide pull-down of ENaC subunits from HEK293T cells; format: binding; settings: subunits individually expressed
T1 construct: expressed in transfected cells; host or cells: HEK293T cells (lysate)
Description: HEK293T cells were transfected with double-tagged human ENaC subunits with HA and V5 epitopes at the N- and C-termini, respectively, in combination with wild-type untagged subunit cDNA. When all three ENaC subunits were expressed, 0.5 μg of each subunit were transfected per well. When expressed individually, 0.75 μg of the subunit were transfected per well. The transfected cells were lysed 24 h later using NP-40 buffer with 1× complete EDTA-free protease inhibitor (Roche, Basel, Switzerland). The lysate was centrifuged at 16,300×g for 15 minutes at 4° C. and the supernatant collected. Protein concentration was determined using the BCA assay and 500 μg of protein plus 0.25 mg peptide and 100 μL of neutravidin were added to a spin column and rotated end-over-end at 4° C. for 24 h (all ThermoFisher Scientific, Rockford, Ill., USA). Flow-through was collected by centrifugation at 1000×g for 30 s. […] The membrane was probed using 1:1000 anti-V5 antibody (Invitrogen, Carlsbad, Calif., USA) overnight at 4° C. in 3% fish gelatin in TBS-T. The blot was then incubated for 1 h at room temperature with an ECL sheep anti-mouse IgG secondary antibody and detected by ECL reagent (ThermoFisher Scientific, Waltham, Mass., USA) or by incubation with a goat anti-mouse IRDye secondary antibody and analyzed by an Odyssey infrared imaging system (LI-COR Biosciences, Lincoln, Nebr., USA).

αENaC = biological target: T2, αENaC (Rattus norvegicus, UniProt P37089+P37090); assay: Surface biotinylation of αENaC in Xenopus oocytes; format: cell-based; settings: coexpression with SPLUNC1
T2 construct: expressed in transfected cells; host or cells: Xenopus oocytes
T2 sequence (P37089 1-698): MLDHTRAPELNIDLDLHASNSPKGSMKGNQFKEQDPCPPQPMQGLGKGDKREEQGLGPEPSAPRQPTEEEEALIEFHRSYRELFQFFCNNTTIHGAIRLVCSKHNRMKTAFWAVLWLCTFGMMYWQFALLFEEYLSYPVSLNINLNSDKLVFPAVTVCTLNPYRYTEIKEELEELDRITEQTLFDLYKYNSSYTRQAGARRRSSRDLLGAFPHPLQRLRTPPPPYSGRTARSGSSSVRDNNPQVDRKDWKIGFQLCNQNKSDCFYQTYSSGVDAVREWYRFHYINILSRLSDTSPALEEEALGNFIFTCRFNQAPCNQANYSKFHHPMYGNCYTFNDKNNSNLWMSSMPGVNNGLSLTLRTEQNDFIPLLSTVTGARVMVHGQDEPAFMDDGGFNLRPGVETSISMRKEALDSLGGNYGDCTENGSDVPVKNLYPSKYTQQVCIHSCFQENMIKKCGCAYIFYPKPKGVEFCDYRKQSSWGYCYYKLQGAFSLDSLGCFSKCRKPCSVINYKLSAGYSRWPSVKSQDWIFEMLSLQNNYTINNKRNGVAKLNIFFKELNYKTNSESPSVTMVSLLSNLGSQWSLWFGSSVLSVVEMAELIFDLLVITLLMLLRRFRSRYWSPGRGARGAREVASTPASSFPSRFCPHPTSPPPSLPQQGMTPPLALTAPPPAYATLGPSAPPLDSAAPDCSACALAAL
T2 sequence (P37090 1-638): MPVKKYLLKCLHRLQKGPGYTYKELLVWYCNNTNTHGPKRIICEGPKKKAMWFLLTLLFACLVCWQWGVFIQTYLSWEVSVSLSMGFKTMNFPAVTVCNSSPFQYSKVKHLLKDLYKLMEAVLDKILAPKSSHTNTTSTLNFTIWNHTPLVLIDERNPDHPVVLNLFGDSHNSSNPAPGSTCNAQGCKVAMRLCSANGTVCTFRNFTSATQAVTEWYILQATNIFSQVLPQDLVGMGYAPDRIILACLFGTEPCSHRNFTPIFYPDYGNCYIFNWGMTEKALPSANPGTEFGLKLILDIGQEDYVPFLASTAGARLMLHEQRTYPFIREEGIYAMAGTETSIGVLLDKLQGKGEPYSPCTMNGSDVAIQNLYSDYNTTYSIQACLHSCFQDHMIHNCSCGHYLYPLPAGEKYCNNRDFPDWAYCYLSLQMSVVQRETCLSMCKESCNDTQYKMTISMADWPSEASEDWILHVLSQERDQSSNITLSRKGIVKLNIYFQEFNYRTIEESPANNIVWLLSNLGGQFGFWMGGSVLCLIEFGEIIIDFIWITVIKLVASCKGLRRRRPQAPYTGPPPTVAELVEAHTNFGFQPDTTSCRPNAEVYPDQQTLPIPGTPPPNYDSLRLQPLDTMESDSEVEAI
T2 sequence (P37091 1-650 partner): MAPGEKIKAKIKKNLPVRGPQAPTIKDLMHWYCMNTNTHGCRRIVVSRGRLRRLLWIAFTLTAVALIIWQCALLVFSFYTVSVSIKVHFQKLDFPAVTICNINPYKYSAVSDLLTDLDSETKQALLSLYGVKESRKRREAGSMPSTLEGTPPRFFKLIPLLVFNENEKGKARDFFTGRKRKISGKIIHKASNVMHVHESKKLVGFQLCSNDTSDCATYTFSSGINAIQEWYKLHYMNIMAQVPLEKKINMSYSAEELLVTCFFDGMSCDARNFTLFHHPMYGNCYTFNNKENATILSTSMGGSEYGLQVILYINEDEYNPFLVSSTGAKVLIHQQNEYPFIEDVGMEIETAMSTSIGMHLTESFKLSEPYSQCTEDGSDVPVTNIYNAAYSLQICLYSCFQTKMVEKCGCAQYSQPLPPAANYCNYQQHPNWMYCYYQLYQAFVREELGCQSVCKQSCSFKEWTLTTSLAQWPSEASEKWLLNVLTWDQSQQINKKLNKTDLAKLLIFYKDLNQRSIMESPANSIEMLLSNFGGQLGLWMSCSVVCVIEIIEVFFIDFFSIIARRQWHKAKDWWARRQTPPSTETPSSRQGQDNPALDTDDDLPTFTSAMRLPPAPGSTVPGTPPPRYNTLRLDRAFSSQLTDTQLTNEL
Description: The effect of SPLUNC1 on the number of ENaC channels in the plasma membrane was tested by expressing SPLUNC1 and αENaC in Xenopus oocytes. After surface biotinylation of αENaC, total lysate was prepared and lysate from 3-4 eggs was separated on a 10% gel.

T1 sequence (P51170 whole entry): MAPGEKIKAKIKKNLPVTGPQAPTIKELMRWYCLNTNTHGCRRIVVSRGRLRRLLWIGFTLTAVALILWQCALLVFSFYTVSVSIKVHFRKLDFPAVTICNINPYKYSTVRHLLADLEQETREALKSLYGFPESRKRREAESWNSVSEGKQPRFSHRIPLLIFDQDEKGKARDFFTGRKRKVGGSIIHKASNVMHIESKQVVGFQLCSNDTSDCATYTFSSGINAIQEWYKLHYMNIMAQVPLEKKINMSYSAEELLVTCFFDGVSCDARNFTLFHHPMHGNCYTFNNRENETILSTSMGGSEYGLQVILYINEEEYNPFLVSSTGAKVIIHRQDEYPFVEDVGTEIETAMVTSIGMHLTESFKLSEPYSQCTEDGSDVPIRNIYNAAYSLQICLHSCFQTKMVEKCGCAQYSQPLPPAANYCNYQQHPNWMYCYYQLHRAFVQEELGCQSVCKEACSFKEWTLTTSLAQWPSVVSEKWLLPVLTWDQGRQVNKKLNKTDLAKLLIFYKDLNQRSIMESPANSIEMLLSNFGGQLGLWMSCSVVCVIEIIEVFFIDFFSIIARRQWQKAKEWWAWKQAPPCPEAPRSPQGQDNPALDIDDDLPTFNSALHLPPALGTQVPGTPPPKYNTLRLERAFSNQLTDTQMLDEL

| Molecule | binding to γENaC (pull-down) (γENaC) | plasma membrane ENaC (surface biotinylation) (αENaC) |
| --- | --- | --- |
| GGLPVPLDQTLPLNVNPA [S18] | without any detectable binding | – |
| SPLUNC1: human SPLUNC1 (SEQ ID NO:1), 256 amino acid secreted PLUNC family protein; rSPLUNC1 is the purified V5/6His-tagged recombinant form (protein, listed as Homo sapiens, V5/6His tag in recombinant form, rSPLUNC1 is the purified V5/6His-tagged recombinant form) MFQTGGLIVFYGLLAQTMAQFGGLPVPLDQTLPLNVNPALPLSPTGLAGSLTNALSNGLLSGGLLGILENLPLLDILKPGGGTSGGLLGGLLGKVTSVIPGLNNIIDIKVTDPQLLELGLVQSPDGHRLYVTIPLGIKLQVNTPLVGASLLRLAVKLDITAEILAVRDKQERIHLVLGDCTHSPGSLQISLLDGLGPLPIQGLLDSLTGILNKVLPELVQGNVCPLVNEVLRGLDITLVHDIVNMLIHGLQFVIKV | – | decreased |
